Patent US10966962B2, “Method for treating neurodegenerative diseases” (THE BOARD OF TRUSTEES OF THE LELAND STANFORD JUNIOR …, priority 2014, dated 2021)

Key:
microglia = experiment: Microglia IL1 and TNFα in 5XFAD AD transgenic animals; type: in vivo, mice; settings: 25 mg/kg orally 3 times a week for 4 weeks, 7 weeks of age
Source text: 5XFAD transgenic mice, which are model of familial AD, were purchased from Jackson Laboratories (Oakley et al J Neurosci. 26:10129-40, 2006). These animals overexpress both mutant human APP(695) with the Swedish (K670N, M671L), Florida (I716V), and London (V7171) Familial Alzheimer's Disease (FAD) mutations and human PS1 harboring two FAD mutations, M146L and L286V. These transgenic mice rapidly recapitulate major features of amyloid pathology in AD by 8-10 weeks of age. Microglia abnormalities and neuroinflammation are also pronounced within this time window. Subsequently, neurodegeneration and behavioral dysfunction that mimic cognitive and psychiatric symptoms of human AD begin and are pronounced by 4-5 months of age. AD transgenic animals were orally treated 3 times a week for 4 weeks with 0.5% methylcellulose or ZLN005 (Sigma) at 25 mg/kg in 0.5% methylcellulose, starting at 3 weeks of age. For studies of microglia, 5[…]=10), 5XFAD-Ctrl (n=8) and WT (n=11) animals were sacrificed at 7 weeks of age. PBS-perfused brain tissues of sacrificed animals were digested with Collagenase IV and processed for flow cytometry. Brain microglia were phenotyped with antibodies directed against mouse IL1 and TNFα (Biolegend) for flow cytometric acquisition (LSRII, BD) and analysis (FlowJo). The results are summarized in FIG. 12; Y-axis represents % of microglia that express IL1 (A) and TNFα (B). […]

STZ-treated mice = experiment: Disease severity in acute STZ model of AD; type: in vivo; settings: STZ-ZLN mice
Method: To induce symptoms of AD, STZ (3 mg/kg, Sigma) was administered via intracerebral injection ([…] et al, Int J Neurosci, PMID 24494726, 2014). This is a well-established model of the sporadic form of AD. Briefly, animals were anesthetized and STZ solution in 5 μl artificial cerebrospinal fluid (Harvard Apparatus) was injected through the skull with a 50 μl syringe. Control animals received a similar volume of artificial cerebrospinal fluid without STZ. The injections were performed twice, on Day 1 and Day 3. […] Treatment with ZLN005 continued on a daily schedule until Day 4, when the animals were evaluated. […] In contrast, in STZ-Ctrl mice, only 10% were active, 70% were lethargic, and 20% of these animals had hind limb paralysis. […] The inventors designed a disease scoring system based on evidence of tissue inflammation: with scores of 1 (mild inflammation, increased vascularization/bleeding of internal organs), 2 (moderate inflammation, severe vascularization/bleeding of internal organs), and 3 (severe inflammation, intestinal or stomach swelling). […] The disease score presented in the example is the total score of the two scoring systems. […] Unpaired t-test was used for statistical analysis.

[1] = system: CD115+CD11b+blood monocytes; experiment: Systemic inflammation in ALS transgenic animals (blood monocytes, serum TNF-α ELISA); type: in vivo, mice; settings: 25 mg/kg orally 3 times a week for 8 weeks
Method: ALS transgenic animals were orally treated 3 times a week for 8 weeks with 0.5% methylcellulose or ZLN005 (Sigma) at 25 mg/kg in 0.5% methylcellulose, starting at 5 weeks of age. For measuring the frequency of CD115+CD11b+blood monocytes, ALS-Ctrl transgenic animals (n=10), ALS-ZLN (n=10), and WT animal (n=10) were sacrificed at 13 weeks of age. The Y-axis in FIGS. 21A and 21B represents % of total monocytes and % of Ly6C+ inflammatory monocytes among circulating immune cells.

[2] = system: Ppargc1a pathway in the brain
Method: To induce symptoms of PD, MPTP (20 mg/kg) was administered intraperitoneally in sterile PBS 4 times at 2-hour intervals on day 1. […] Log-rank test was used for statistical analysis.
Ppargc1a, an inducer of mitochondrial biogenesis, is widely expressed in cells throughout the body.
For gene expression studies, animals were sacrificed on Day 4, 24 hours after the 3rd oral dosage of ZLN005, and PBS-perfused brain tissues were processed for RNA isolation, cDNA synthesis, and real-time quantitative PCR (Invitrogen). […] Unpaired t-tests were used for statistical analyses.

MPTP-treated animals [3] = experiment: Nest-building test in MPTP model of PD; type: in vivo, mice; settings: one dose 25 mg/kg
Method: Impaired nest-building skill has been widely used as one of the most reliable indication of motor dysfunction in the MPTP model of […] et al, Behav Brain Res, 125:109-25, 2001). In this test, animals are given cotton pads to be used as nestling, and are tested for their abilities to tear off the cotton pads into small pieces to build a nest; these abilities require fine motor coordination. Animals with microglia-specific deletion of Ppargc1a and controls were generated as described in Example 1. […] Control animals received a similar volume of PBS. Immediately after the last dosage of MPTP, each animal was put in one cage and given two cotton pads to be used in nestling; the appearance of the cotton pads was evaluated 16 hours later. The results are shown in FIG. 7 as weights of shredded nestlets (n=9-10 animals per treatment group). […] MPTP-ZLN animals generated more cotton-debris in comparison to the MPTP-Ctrl group. […] Unpaired t-tests were used for statistical analyses.

MPTP-treated animals [4] = experiment: Wheel-running test in MPTP model of PD; type: in vivo, mice; settings: 25 mg/kg orally 7 days, accelerating speed 5-15 rpm, Day 8
Method: The wheel-running test has been widely used as one of the most reliable measurements of behavioral dysfunction in animal models of neurodegeneration ([…] et al, Behav Brain Res, 125:109-25, 2001). In this study, animals were trained to run on a treadmill at specific speed and training duration before undergoing a formal test of motor skills. Motor performance of animals was evaluated by the time (seconds) that they remained running on the treadmill, which required motor coordination and strength. […] Animals with microglia-specific deletion of Ppargc1a were generated as described in Example 1. At 7 weeks of age, these animals were subjected to 1.5 weeks of training on a treadmill at a constant speed 10 rpm (rotations per minute) and then 1.5 weeks of training at an accelerating speed from 5-15 rpm. After the training period at 10 weeks of age, animals were treated with MPTP and tested for motor performance at an accelerating speed from 5-15 rpm. […] Unpaired t-tests were used for statistical analyses.

CC(C)(C)c1ccc(-c2nc3ccccc3[nH]2)cc1 [ZLN005, 2-(4-tert-butylphenyl)-1H-benzimidazole]
IL1 production in microglia (microglia): decreased
TNFα production in microglia (microglia): decreased
animals active (STZ-treated mice; 25 mg/kg orally daily, Day 4): 33%
animals paralyzed (STZ-treated mice; 25 mg/kg orally daily, Day 4): none
animals showing evidence of lethargy (STZ-treated mice; 25 mg/kg orally daily, Day 4): 66%
mean disease score (STZ-treated mice; day 4, total of inflammation and physical activity scores): 1.6
% of Ly6C+ inflammatory monocytes among circulating immune cells ([1]; 13 weeks of age): decreased
% of total monocytes among circulating immune cells ([1]; 13 weeks of age): decreased
serum levels of TNF-α ([1]; ELISA): significantly suppressed
expression of genes involved in Ppargc1a signaling (Pgc1a), mitochondrial genes (Tfam, Nrf2, Ucp3) and anti-oxidative stress genes (Ant, Sod1, Sod2) in the brain ([2]; MPTP-treated animals, 25 mg/kg orally once a day for 3 days, Day 4): increases expression of genes
upregulation of tyrosine hydroxylase (Th) ([2]; brain of MPTP-treated animals, 25 mg/kg orally once a day for 3 days, Day 4): 15%
blood-brain barrier penetration ([2]; mouse, in vivo, po, 25 mg/kg): penetrated the blood-brain barrier
nest-building, weights of shredded nestlets (fine motor skills) (MPTP-treated animals [3]; MPTP-treated Cre animals): present only in FF animals but not in Cre animals
nest-building, weights of shredded nestlets (fine motor skills) (MPTP-treated animals [3]; MPTP-treated FF animals, evaluated 16 hours later, vs MPTP-Ctrl): marked improvement in their fine motor skills
latency to fall, wheel running (MPTP-treated animals [4]; MPTP-treated Cre animals): not present in Cre animals
latency to fall, wheel running (MPTP-treated animals [4]; MPTP-treated FF animals): performed significantly better than vehicle treated mice
